In ChEMBL document CHEMBL1145902, “Design and synthesis of a potent and selective triazolone-based peroxisome proliferator-activated receptor alpha agonist” (J Med Chem, 2003):
pEC50, pIC50: −log10 of the molar value. Calls of active or inactive are those of the source. The rule behind the calls is not given here.

Columns and labels:
[1] = biological target: T1, Peroxisome proliferator-activated receptor alpha (Homo sapiens, UniProt Q07869)
T1 sequence (Q07869 whole entry): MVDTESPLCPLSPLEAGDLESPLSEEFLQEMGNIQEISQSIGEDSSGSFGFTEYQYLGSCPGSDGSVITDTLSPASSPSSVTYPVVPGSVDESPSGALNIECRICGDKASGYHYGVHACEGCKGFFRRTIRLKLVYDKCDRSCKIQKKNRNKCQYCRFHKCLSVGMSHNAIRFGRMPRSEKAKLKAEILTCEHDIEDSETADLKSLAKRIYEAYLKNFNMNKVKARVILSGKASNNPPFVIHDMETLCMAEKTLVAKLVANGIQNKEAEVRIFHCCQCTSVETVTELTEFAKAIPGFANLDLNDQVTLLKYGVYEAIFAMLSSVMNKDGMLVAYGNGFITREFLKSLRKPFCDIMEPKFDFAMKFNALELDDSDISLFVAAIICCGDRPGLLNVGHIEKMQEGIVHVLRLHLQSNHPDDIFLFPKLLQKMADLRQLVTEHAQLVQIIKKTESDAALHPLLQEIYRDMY

[2] = biological target: T1, Peroxisome proliferator-activated receptor alpha; format: functional
[3] = biological target: T2, Peroxisome proliferator-activated receptor gamma (Homo sapiens) (UniProt P37231)
T2 sequence (whole entry): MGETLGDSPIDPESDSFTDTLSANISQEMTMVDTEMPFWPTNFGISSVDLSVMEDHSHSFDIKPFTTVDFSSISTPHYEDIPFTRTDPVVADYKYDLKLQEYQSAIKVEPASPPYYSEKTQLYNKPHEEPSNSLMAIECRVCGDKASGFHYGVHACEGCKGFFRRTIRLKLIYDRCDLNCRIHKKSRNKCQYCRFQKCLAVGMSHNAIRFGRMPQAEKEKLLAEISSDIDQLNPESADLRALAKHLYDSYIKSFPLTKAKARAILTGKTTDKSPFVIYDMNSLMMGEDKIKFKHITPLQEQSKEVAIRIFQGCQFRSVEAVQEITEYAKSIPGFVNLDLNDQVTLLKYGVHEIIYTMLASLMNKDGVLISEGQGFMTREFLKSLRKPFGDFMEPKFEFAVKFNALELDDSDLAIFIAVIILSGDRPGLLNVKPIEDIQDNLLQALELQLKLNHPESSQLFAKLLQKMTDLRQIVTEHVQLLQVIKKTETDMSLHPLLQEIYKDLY

[4] = biological target: T3, Peroxisome proliferator-activated receptor delta (Homo sapiens) (UniProt Q03181)
T3 sequence (whole entry): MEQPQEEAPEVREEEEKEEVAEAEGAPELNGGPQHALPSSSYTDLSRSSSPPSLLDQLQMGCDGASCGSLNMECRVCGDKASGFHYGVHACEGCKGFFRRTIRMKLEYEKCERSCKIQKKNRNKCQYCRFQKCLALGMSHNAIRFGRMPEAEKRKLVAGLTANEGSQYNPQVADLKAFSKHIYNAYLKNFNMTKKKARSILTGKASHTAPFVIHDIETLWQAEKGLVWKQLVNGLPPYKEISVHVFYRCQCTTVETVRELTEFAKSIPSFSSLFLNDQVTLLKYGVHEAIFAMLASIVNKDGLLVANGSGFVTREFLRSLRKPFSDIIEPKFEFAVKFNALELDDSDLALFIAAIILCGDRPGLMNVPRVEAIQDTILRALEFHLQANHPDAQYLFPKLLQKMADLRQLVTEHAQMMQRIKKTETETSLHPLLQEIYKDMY

[5] = biological target: T1, Peroxisome proliferator-activated receptor alpha; format: functional; remark: listed apart in the source
[6] = biological target: T4, Peroxisome proliferator-activated receptor delta (Homo sapiens, UniProt Q03181)
T4 sequence (Q03181 whole entry): T3 sequence (whole entry)

[7] = biological target: T5, Peroxisome proliferator-activated receptor gamma (Homo sapiens, UniProt P37231); format: functional
T5 sequence (P37231 whole entry): T2 sequence (whole entry)

Mus musculus [8] = organism: Mus musculus; test: animal or person; format: functional
Mus musculus [9] = organism: Mus musculus; format: functional
Mus musculus [10] = organism: Mus musculus; test: animal or person; format: functional; conditions: Serum
Mus musculus [11] = organism: Mus musculus; test: animal or person; format: functional; remark: listed apart in the source
[12] = biological target: T3, Peroxisome proliferator-activated receptor delta (Homo sapiens); remark: listed apart in the source

Structure (SMILES) | pIC50 [1] | pEC50 [5] | pIC50 [6] | also measured
CC(C)(Oc1ccc(C(=O)c2ccc(Cl)cc2)cc1)C(=O)O [FENOFIBRIC ACID] | 4.62 |  |  | pEC50 [2]: 4.89; NB [3]: inactive; NB [4]: inactive
CCCCCCn1c(CCc2ccc(OC(C)(C)C(=O)O)cc2)nn(Cc2cccc(OC)c2)c1=O |  | 5.66 |  | pEC50 [7]: 5.59
CC(C)OC(=O)C(C)(C)Oc1ccc(C(=O)c2ccc(Cl)cc2)cc1 [FENOFIBRATE] |  |  |  | ED50 (Mus musculus [8]): 110 mg/kg; Increase (Mus musculus [9]): 120%; ED50 (Mus musculus [10]): 79 mg/kg
Cc1ccc(Cn2nc(CCCc3ccc(OC(C)(C)C(=O)O)cc3)nc2O)cc1 [LY-518674] |  |  | 5.42 | ED50 (Mus musculus [11]): 0.1 mg/kg; ED50 (Mus musculus [8]): 0.3 mg/kg; Increase (Mus musculus [9]): 210%
Cc1ccc(Cn2nc(CCCc3ccc(OC(C)(C)C(=O)O)cc3)n(CC(=O)O)c2=O)cc1 | 6.02 | 5.57 |  | NB [12]: inactive

Second part, led by results:

pIC50 [1] | pEC50 [5] | pIC50 [6] | Structure (SMILES) | also measured
7.72 | 7.51 | 5.70 | CCCn1c(CCCc2ccc(OC(C)(C)C(=O)O)cc2)nn(Cc2cccc(OC)c2)c1=O | 
7.57 | 7.06 | 5.39 | Cc1ccc(Cn2nc(CCCc3ccc(OC(C)(C)C(=O)O)cc3)n(CCO)c2=O)cc1 | 
 | 5.55 |  | CCCn1c(CCc2ccc(OC(C)(C)C(=O)O)cc2)nn(Cc2ccc(C)cc2)c1=O | pEC50 [7]: 5.54
6.66 | 6.66 | 5.82 | CCCn1c(CCCc2ccc(OC(C)(C)C(=O)O)cc2)nn(C(C)c2ccccc2)c1=O (configuration not stated) | 
